Results published in ChEMBL document CHEMBL3751848, “Receptor binding profiles and quantitative structure-affinity relationships of some 5-substituted-N,N-diallyltryptamines” (Bioorg Med Chem Lett, 2016).

Tests used:
[1] = target: T1, Alpha-1B adrenergic receptor (Homo sapiens, UniProt P35368); test: Binding affinity to alpha-1B adrenergic receptor (unknown origin) by competition binding assay
T1 sequence (P35368 whole entry): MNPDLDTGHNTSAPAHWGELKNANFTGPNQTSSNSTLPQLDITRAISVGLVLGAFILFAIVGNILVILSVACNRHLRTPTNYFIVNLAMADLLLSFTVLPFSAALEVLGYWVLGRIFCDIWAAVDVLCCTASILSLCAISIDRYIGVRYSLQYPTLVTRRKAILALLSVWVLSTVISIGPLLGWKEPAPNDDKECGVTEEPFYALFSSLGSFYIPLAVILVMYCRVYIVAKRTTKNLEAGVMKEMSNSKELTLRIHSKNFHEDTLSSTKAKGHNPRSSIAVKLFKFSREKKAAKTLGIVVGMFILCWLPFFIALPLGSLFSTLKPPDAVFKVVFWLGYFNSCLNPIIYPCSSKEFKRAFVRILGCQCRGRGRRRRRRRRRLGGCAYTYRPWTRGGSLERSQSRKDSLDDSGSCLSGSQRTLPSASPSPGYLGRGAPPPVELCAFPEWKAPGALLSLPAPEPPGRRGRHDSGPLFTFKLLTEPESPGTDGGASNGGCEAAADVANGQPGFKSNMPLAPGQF

[2] = target: Sodium-dependent serotonin transporter (Homo sapiens, UniProt P31645); test: Binding affinity to SERT (unknown origin) by competition binding assay
Sodium-dependent serotonin transporter, sequence (P31645 whole entry): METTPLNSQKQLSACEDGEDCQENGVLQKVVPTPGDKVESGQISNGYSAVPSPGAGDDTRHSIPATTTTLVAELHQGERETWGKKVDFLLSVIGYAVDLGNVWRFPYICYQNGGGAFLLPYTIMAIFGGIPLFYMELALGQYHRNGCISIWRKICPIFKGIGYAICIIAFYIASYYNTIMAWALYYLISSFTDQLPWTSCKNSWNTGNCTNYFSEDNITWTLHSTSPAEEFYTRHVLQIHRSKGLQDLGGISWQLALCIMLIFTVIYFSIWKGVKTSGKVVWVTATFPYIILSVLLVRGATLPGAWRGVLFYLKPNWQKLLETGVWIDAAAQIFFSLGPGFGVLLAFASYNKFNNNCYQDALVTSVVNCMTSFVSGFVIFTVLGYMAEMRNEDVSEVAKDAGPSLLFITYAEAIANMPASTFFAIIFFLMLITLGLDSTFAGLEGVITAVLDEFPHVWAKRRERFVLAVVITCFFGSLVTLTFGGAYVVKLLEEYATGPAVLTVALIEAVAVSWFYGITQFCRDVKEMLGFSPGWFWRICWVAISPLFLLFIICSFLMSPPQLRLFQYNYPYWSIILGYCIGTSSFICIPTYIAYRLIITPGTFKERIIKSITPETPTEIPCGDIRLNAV

[3] = target: 5-hydroxytryptamine receptor 1D (Homo sapiens, UniProt P28221); test: Binding affinity to 5-HT 1D (unknown origin) by competition binding assay
5-hydroxytryptamine receptor 1D, sequence (P28221 whole entry): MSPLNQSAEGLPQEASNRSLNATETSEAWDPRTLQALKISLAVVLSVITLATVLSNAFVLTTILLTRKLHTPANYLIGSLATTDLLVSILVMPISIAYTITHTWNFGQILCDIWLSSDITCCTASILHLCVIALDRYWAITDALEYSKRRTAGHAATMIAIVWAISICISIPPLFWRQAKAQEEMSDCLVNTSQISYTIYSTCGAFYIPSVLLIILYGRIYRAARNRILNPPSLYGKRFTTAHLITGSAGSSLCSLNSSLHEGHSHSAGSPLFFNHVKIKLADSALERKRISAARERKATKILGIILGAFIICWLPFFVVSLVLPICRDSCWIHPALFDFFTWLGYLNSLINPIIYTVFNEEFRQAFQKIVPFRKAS

[4] = target: T2, 5-hydroxytryptamine receptor 2C (Homo sapiens, UniProt P28335); test: Binding affinity to 5-HT 2C (unknown origin) by competition binding assay
T2 sequence (P28335 whole entry): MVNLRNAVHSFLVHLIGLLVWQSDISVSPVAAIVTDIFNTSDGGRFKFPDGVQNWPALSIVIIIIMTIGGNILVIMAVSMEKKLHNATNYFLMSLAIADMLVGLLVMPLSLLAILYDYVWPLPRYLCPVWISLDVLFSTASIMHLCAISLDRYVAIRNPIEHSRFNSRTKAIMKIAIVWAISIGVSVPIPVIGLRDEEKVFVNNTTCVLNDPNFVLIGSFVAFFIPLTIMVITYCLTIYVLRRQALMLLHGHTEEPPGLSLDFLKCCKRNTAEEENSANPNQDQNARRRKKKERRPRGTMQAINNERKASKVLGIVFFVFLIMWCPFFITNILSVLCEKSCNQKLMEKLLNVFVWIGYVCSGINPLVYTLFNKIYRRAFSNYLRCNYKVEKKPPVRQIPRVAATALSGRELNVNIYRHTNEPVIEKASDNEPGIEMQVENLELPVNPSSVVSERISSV

[5] = target: Alpha-2B adrenergic receptor (Homo sapiens, UniProt P18089); test: Binding affinity to alpha-2B adrenergic receptor (unknown origin) by competition binding assay
Alpha-2B adrenergic receptor, sequence (P18089 whole entry): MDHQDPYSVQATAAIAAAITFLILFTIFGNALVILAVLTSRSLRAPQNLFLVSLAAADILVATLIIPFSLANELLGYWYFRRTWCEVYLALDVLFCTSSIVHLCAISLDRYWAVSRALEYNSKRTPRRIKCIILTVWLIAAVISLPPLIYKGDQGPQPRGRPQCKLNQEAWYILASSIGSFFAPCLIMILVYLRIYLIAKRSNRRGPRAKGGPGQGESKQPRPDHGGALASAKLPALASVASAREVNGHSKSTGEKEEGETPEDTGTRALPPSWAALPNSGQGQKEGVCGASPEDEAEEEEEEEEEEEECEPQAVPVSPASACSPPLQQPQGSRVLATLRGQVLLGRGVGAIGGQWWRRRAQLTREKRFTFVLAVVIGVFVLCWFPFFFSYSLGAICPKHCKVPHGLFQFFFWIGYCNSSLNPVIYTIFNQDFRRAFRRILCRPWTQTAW

[6] = target: 5-hydroxytryptamine receptor 7 (Homo sapiens, UniProt P34969); test: Binding affinity to 5-HT 7 (unknown origin) by competition binding assay
5-hydroxytryptamine receptor 7, sequence (P34969 whole entry): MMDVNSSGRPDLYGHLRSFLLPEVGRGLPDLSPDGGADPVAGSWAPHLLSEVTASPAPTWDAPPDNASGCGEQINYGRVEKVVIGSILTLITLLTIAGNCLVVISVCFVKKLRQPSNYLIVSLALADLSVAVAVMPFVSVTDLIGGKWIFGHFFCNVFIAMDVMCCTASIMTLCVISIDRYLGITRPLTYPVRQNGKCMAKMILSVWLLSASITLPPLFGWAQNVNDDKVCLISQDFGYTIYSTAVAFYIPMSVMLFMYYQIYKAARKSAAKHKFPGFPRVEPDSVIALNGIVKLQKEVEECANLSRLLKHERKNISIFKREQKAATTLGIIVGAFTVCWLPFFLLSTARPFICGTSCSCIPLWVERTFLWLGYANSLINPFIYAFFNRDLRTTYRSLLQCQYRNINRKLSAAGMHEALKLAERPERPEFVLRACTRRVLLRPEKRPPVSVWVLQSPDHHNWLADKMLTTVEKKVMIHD

[7] = Binding affinity to sigma 2 receptor (unknown origin) by competition binding assay; design: species or system Homo sapiens
[8] = target: Sigma non-opioid intracellular receptor 1 (Homo sapiens, UniProt Q99720); test: Binding affinity to sigma 1 receptor (unknown origin) by competition binding assay
Sigma non-opioid intracellular receptor 1, sequence (Q99720 whole entry): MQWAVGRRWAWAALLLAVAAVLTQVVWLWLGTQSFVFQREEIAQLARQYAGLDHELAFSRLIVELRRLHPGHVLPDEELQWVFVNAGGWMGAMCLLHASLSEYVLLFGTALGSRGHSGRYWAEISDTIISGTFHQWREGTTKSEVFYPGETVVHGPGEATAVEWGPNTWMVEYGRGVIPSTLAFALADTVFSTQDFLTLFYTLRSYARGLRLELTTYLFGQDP

[9] = target: T3, Alpha-2C adrenergic receptor (Homo sapiens, UniProt P18825); test: Binding affinity to alpha-2C adrenergic receptor (unknown origin) by competition binding assay
T3 sequence (P18825 whole entry): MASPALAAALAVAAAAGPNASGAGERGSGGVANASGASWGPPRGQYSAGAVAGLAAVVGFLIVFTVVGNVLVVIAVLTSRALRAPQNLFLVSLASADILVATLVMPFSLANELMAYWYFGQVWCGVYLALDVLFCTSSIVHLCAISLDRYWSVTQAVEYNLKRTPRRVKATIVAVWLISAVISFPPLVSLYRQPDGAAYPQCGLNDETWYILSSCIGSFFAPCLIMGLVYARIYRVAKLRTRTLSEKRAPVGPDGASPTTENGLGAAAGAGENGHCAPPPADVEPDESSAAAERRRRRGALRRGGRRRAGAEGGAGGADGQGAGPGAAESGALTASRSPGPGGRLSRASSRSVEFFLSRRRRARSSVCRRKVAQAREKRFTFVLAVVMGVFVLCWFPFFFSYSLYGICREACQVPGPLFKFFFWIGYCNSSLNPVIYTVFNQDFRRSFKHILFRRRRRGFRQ

Histamine H3 receptor = Histamine H3 receptor (Homo sapiens, UniProt Q9Y5N1); test: Binding affinity to histamine H3 receptor (unknown origin) by competition binding assay
Histamine H3 receptor, sequence (Q9Y5N1 whole entry): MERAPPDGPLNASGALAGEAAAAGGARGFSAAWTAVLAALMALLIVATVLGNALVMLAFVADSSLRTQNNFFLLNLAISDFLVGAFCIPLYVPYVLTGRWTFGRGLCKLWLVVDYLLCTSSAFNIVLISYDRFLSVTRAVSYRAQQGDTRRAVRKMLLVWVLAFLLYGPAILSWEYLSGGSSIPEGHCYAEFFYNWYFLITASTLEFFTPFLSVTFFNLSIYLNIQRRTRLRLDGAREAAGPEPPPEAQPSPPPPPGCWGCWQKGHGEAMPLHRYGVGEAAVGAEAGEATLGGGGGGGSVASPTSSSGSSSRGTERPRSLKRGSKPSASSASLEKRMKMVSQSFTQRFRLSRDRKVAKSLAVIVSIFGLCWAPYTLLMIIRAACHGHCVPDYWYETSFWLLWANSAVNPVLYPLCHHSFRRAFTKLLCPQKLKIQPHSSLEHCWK

[10] = target: Sodium-dependent dopamine transporter (Homo sapiens, UniProt Q01959); test: Binding affinity to DAT (unknown origin) by competition binding assay
Sodium-dependent dopamine transporter, sequence (Q01959 whole entry): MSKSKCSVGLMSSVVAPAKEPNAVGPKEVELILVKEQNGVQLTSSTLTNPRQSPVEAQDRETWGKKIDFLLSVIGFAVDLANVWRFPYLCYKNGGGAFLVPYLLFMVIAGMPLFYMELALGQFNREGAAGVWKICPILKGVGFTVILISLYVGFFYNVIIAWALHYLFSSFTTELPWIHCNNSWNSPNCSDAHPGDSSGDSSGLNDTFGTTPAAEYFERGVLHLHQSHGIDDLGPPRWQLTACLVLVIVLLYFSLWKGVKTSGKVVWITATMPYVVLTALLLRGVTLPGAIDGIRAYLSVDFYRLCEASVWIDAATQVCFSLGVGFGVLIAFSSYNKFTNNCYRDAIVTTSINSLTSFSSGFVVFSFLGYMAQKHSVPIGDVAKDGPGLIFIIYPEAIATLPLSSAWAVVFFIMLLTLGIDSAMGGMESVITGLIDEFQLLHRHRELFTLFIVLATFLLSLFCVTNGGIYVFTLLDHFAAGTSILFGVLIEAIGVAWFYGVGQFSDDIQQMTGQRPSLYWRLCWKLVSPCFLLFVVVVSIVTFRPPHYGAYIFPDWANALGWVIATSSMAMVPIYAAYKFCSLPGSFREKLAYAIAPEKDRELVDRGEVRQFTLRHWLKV

Structure (SMILES)	Ki [1] [nM]	Ki [2] [nM]	Ki ([3]; read-out: Ki) [nM]	Ki ([3]; read-out: pKi (converted)) [nM]	Ki ([4]; read-out: Ki) [nM]	Ki ([4]; read-out: pKi (converted)) [nM]	Ki ([5]; read-out: Ki) [nM]	Ki ([5]; read-out: pKi (converted)) [nM]	pKi [6]	Ki [7] [nM]	pKi [7]	Ki ([8]; read-out: Ki) [nM]	Ki ([8]; read-out: pKi (converted)) [nM]	Ki ([9]; read-out: Ki) [nM]	Ki ([9]; read-out: pKi (converted)) [nM]	pKi (Histamine H3 receptor)	Ki [10] [nM]	Ki [6] [nM]
C=CCN(CC=C)CCc1c[nH]c2ccccc12	1260	151	< 10000	692	< 10000	389	< 10000	302	> 5	< 10000	6.45	< 10000	100	< 10000	891	> 5	1260	
C=CCN(CC=C)CCc1c[nH]c2ccc(C)cc12	1780	363	< 10000	398	< 10000	316						< 10000	74.1	< 10000	1100	> 5	3160	155
